This note sets out measurements from patent publication US7589168B2 (Roskamp Research LLC, priority 2001, dated 2009).

“Also recorded” adds a separate entry of the source. Ends that are not written are not given here.

In data set [1] the test system is human middle cerebral artery rings. Briefly: Human middle cerebral artery ring angiogenesis assay. Type of data set: cell-based. The following applies: for microvessel outgrowths: day 9, vs control.
The next data set deals with rat aortic rings. Briefly: Ex vivo rat aortic ring angiogenesis assay. The data set is classed as cell-based, Sprague Dawley rats.
For data set [2], the system named is cow middle cerebral artery rings. Briefly: Cow middle cerebral artery ring angiogenesis assay. As to conditions: COX-2 inhibition by NS-398; data not shown. Type of data set: cell-based.
Data set [3] concerns A-549 (human lung adenocarcinoma). Nature of the data set: Nude mouse tumor xenograft model, A-549. Type of data set: in vivo, nude mice. The following applies: for tumor growth (tumor volume): vs vehicle control; for tumor vascularization (mean microvessel count per tumor): vs control tumors, 50 mg/kg/day.
Procedure: (§1) Nude mouse tumor xenograft model. […] The tumor volumes were determined by measuring length (l) and width (w) and calculating volume (V=lw^2/2). On the termination day of each in vivo antitumor study, tumors were extracted and fixed in 10% neutral buffered formalin for 6 h. Formalin-fixed paraffin sections were cut at 3 microns and dried overnight at room temperature. Sections were immunostained with rat anti-mouse CD31 ([sequence], San Diego, Calif.) using the avidin peroxidase complex technique as previously described (Blaskovich M. A., et al. Nat. Biotechnol. 18, 1065-1070 (2000)). Briefly, sections were digested with protease XXIV (1 mg/ml in PBS, pH 7.6) for 7 minutes. Endogenous peroxidase was blocked with 3% hydrogen peroxide and non-specific background staining reduced by a 10 min incubation with normal rabbit serum. Sections were incubated for 30 min with rat anti-mouse CD31 at 1:50, for 15 min with biotinylated anti-rat IgG and for 15 min with ABC complex (VECTOR KIT, Burlingame, Calif). NOVARED was used as the chromogen. Slides were counterstained with modified Mayer's hematoxylin using standard histological techniques. For microvessel counting, the five areas of highest tumor neovascularization were microscopically selected using a low-power view. After the areas of highest neovascularization had been identified, individual microvessels were counted on a 400×(40× objective lens and 10× ocular lens) field. Brown-staining endothelial cells or endothelial cell clusters were considered as a single, countable microvessel as previously described (Weidner N. et al. N. Engl. J. Med. 324, 1-8 (1991)). Data from at least forty 400× fields of each tumor type are reported by mean values±SE. Results are expressed as the % of microvessel count standardized against the microvessel count in the control tumors (vehicle only).
The subject of data set [4] is U87-MG (human glioblastoma). Briefly: Nude mouse tumor xenograft model, U87-MG. Type of data set: in vivo, nude mice.
Procedure: as §1
In a further data set the test system is endothelial cells. Briefly: Toxicity (apoptosis, necrosis) of Aβ in the capillary network assay. Type of data set: cell-based, human. The following applies: soluble or aggregated Aβ; data not shown. The procedure: Although endothelial cells continue to proliferate and form a cobblestone monolayer when plated on untreated tissue culture dishes, culturing on dishes coated with reconstituted basement membrane induces endothelial cells to become quiescent and adopt a three-dimensional capillary-like morphology. Therefore, the effect of Aβ on the capillary-like network formation on […] by endothelial cells isolated from human middle cerebral artery was assessed. […] The potential toxicity of Aβ was investigated in this assay and it was observed that under these culture conditions no apoptosis (as measured by ELISA determining the quantity of cytoplasmic oligonucleosomes) or necrosis (estimated by the release of LDH in the culture medium) of endothelial cells was induced by either soluble or aggregated Aβ (data not shown).

Data set [5] relates to human brain endothelial cells. Briefly: Endothelial cell migration assay (modified Boyden chamber, […] invasion chamber). The data set is classed as cell-based. As to conditions: 20 hours, vs untreated cells.
Procedure: Endothelial Cell Migration Assay. Migration of human brain adult endothelial cells was evaluated using a modified Boyden chamber assay (BD BioCoat [sequence] Invasion Chamber), as described (Soker et al. 1998; Nakamura et al. 1997). The cells were plated at 4.10^4/ml onto an 8 μm pore size membrane coated with a thin layer of [sequence] basement membrane matrix. Freshly solubilized Aβ (1 μM and 5 μM) was added to the medium in the outer cup and the cells were cultured for 20 hours. Non-invading cells were removed from the upper surface by using a cotton swab. Membrane inserts were then fixed with 4% paraformaldehyde and stained with the DEAD-RED dye (MOLECULAR PROBE). Cells were observed using a fluorescent microscope. The number of cells, which migrated to the undersurface of the filter, was quantified by counting the cells in randomly selected 3 microscopic fields (10×). Experiments were done in triplicate.
The test system of data set [6] is bFGF-induced angiogenesis in MATRIGEL plugs. Briefly: In vivo […] plug assay (bFGF-induced angiogenesis). On the set-up: species or system mice.
In another data set the test system is B16F1 melanoma cells. Briefly: Growth of subcutaneous B16F1 melanoma tumors. Type of data set: in vivo, C57B16/J mice. As to conditions: cells injected s.c. in medium containing 10 μM freshly dissolved Aβ1-40; 14 days after implantation. The procedure: Subcutaneous Implantation of B16 Melanoma Cells. C57B16/J mice were purchased from Jackson laboratories at 8 weeks of age. The B16 F1 murine melanoma cell line was purchased from ATCC. Cells were grown in DMEM medium supplemented with 10% fetal calf serum and 1× mixture of antibiotics-fungicide (BIOWHITEKER). […] 100 μl of cell suspension were injected subcutaneously in mice. Fourteen days after the implantation of the cells, mice were euthanized and the tumors dissected and weighted.

The test system of data set [7] is neovascularization stimulated by bFGF in the rat cornea. Nature of the data set: Rat corneal model of angiogenesis (bFGF hydron pellets). Type of data set: in vivo.
Source text: Representative flat-mount photomicrographs of rat corneas (original magnification ×100) 7 days after implantation of hydron pellets. […] Angiogenesis indexes are expressed as mean±SE.
For data set [8], the system named is chick chorionic allantoid membrane (CAM). Briefly: Chick chorionic allantoid membrane (CAM) model of angiogenesis. The data set is classed as in vivo. The following applies: dose range 1 microgram to 250 micrograms, 48 hours.
Procedure: After 48 hours of incubation, CAMs were perfused with colloidal carbon, fixed and photographed.
Where [9] appears, read: 50 mg/kg/day/tumor intratumorally.

As to `CS(=O)(=O)Nc1ccc([N+](=O)[O-])cc1OC1CCCCC1` [NS-398], the microvessel outgrowths entry is recorded as “partially inhibited the microvessel outgrowths; also recorded: anti-angiogenic effect” in [1] (NS-398 (20 μM)); “displays anti-angiogenic activity; also recorded: effectively inhibited outgrowths” in the data set with rat aortic rings (20 μM, day 5, vs control); “partial inhibition of microvessel outgrowths” in data set [2]. Moreover, the “effect on stimulation of microvessel outgrowths by 1 μM Aβ1-40” value with rat aortic rings (NS-398 + 1 μM Aβ1-40, day 5) is given as “able to oppose the pro-angiogenic effect of 1 μM Aβ1-40; also recorded: also inhibited”.

Take “Aβ: Aβ peptide as worded in the examples; methods and legends indicate Aβ1-40 (toxicity test: soluble or aggregated Aβ1-40 and Aβ1-42)”: the “tumor growth (tumor volume)” value in data set [3] (setting [9]) was “suppression of tumor growth”; in [4] (50 mg/kg/day/tumor intratumorally, vs vehicle control) it was “suppression of tumor growth”. Further, in [3] (CD31 and factor VIII immunostaining, 50 mg/kg/day/tumor intratumorally), the “reduction of tumor microvessel densities” value is “approximately 60%”. The tumor growth result in data set [3] (with 10 μM of Aβ peptide) and in data set [4] (with 10 μM of Aβ peptide) was “complete inhibition of tumor growth” in each case. In addition, the “reduction of microvessel densities” value in data set [4] (CD31 immunostaining, 50 mg/kg/day/tumor intratumorally) is listed as “approximately 50%”. Also, in the data set with endothelial cells, the “apoptosis of endothelial cells (ELISA, cytoplasmic oligonucleosomes)” value is given as “no apoptosis”. In the data set on endothelial cells, the “necrosis of endothelial cells (release of LDH in the culture medium)” value is recorded as “no”. In addition, the endothelial cell migration result in [5] (1 μM freshly solubilized) is “stimulated endothelial cell migration”; in data set [5] (5 μM freshly solubilized), “significantly suppressed endothelial cells migration”. Besides, the “total cellular invasion in MATRIGEL plugs” value in [6] (50 mg/kg/day, Aβ vs scrambled Aβ group, t-test) is “significant difference”. In addition, the “angiogenesis in the MATRIGEL plug model” value in data set [6] (with 2 μM of Aβ peptide) is on record as “inhibition of angiogenesis”. Moreover, in the data set with B16F1 melanoma cells, the “development of tumors (tumor weight)” value was “significantly reduce the development of tumors”.

Regarding “VIGKYHGMSNLVGRSFEVHQGKGAEVDAHGLFDIEAFVDV [scrambled Aβ, having the same amino acids as Aβ1-40 peptide, but in random order]”, the “tumor growth (tumor volume)” value in [3] (setting [9]) is reported as “did not affect the growth of human lung tumors; also recorded: no difference”. Moreover, the “tumor vascularization (mean microvessel count per tumor)” value was “no significant difference” in data set [3] (setting [9]) and “did not impede tumor vascularization” in data set [3] (50 mg/kg/day/tumor intratumorally, listed as Aβ scrambled). Also, the microvessel outgrowths result in [1] (1 μM, listed as scramble Aβ1-40) is “absence of pro-angiogenic activity; also recorded: not altered”; in data set [1] (5 μM) it was “not altered”. Moreover, the formation of outgrowths entry in data set [1] (scramble peptide, dose not given, 9 days) is reported as “unable to affect the formation of outgrowths”. Also, the “neovascularization stimulated by bFGF” value in data set [7] (after 7 days, hydron pellets) is “displayed no effect”. The “angiogenesis index vs control (bFGF alone)” value in data set [7] (dose not stated, 7 days) was “no significant difference”. Moreover, in data set [6] (50 mg/kg/day intraperitoneal, 6 days), the “endothelial cell invasion and vessel formation (PECAM-1 immunostaining)” value is reported as “presence of endothelial cells forming vessels”. In [8], the “vascular response vs control conditions” value was “no difference in vascular response”.
